Laboratory results published in US4536335A, “Carbapenem antibiotics” (Bristol-Myers Company, priority 1983, dated 1985).
≈ marks a conversion by molar mass, not a printed value. Where two headings read alike, the source gives them in different places.

Columns and labels:
S. pneumoniae A-9585 = assay: In vitro MIC, tube dilution; type: cell-based; conditions: overnight incubation at 37° C., additional data table
S. pyogenes A-9604 = assay: In vitro MIC, tube dilution; type: cell-based; conditions: Nutrient Broth, overnight incubation at 37° C., additional data table
S. aureus A-9537 = assay: In vitro MIC, tube dilution; type: cell-based; conditions: overnight incubation at 37° C., additional data table; for MIC: Staphylococcus aureus
[1] = test system: S. aureus A-9606 (Pen-res.); assay: In vitro MIC, tube dilution; type: cell-based; conditions: Nutrient Broth, overnight incubation at 37° C., additional data table
S. faecalis A20688 = assay: In vitro MIC, tube dilution; type: cell-based; conditions: Nutrient Broth, overnight incubation at 37° C., additional data table
E. coli A15119 = assay: In vitro MIC, tube dilution; type: cell-based; conditions: Nutrient Broth, overnight incubation at 37° C., additional data table
E. coli A20341-1 = assay: In vitro MIC, tube dilution; type: cell-based; conditions: Nutrient Broth, overnight incubation at 37° C., additional data table
K. pneumoniae A-9664 = assay: In vitro MIC, tube dilution; type: cell-based; conditions: Nutrient Broth, overnight incubation at 37° C., additional data table
K. pneumoniae A20468 = assay: In vitro MIC, tube dilution; type: cell-based; conditions: Nutrient Broth, overnight incubation at 37° C., additional data table
P. mirabilis A-9900 = assay: In vitro MIC, tube dilution; type: cell-based; conditions: Nutrient Broth, overnight incubation at 37° C., additional data table
P. vulgaris A21559 = assay: In vitro MIC, tube dilution; type: cell-based; conditions: Nutrient Broth, overnight incubation at 37° C., additional data table
P. morganii A15153 = assay: In vitro MIC, tube dilution; type: cell-based; conditions: Nutrient Broth, overnight incubation at 37° C., additional data table
P. rettgeri A22424 = assay: In vitro MIC, tube dilution; type: cell-based; conditions: Nutrient Broth, overnight incubation at 37° C., additional data table
S. marcescens A20019 = assay: In vitro MIC, tube dilution; type: cell-based; conditions: Nutrient Broth, overnight incubation at 37° C., additional data table
E. cloacae A-9656 = assay: In vitro MIC, tube dilution; type: cell-based; conditions: Nutrient Broth, overnight incubation at 37° C., additional data table
P. aeruginosa A-9843A [2] = assay: In vitro MIC, tube dilution; type: cell-based; conditions: Nutrient Broth, overnight incubation at 37° C., additional data table
P. aeruginosa A21213 = assay: In vitro MIC, tube dilution; type: cell-based; conditions: Nutrient Broth, overnight incubation at 37° C., additional data table
E. cloacae A-9659 = assay: In vitro MIC, tube dilution; type: cell-based; conditions: Nutrient Broth, overnight incubation at 37° C., additional data table
Source text: N-formimidoyl thienamycin was included as a comparison compound.

P. aeruginosa A-9843a [3] = assay: Protective effect in the intramuscular treatment of infected mice (PD50); type: in vivo; conditions: Pseudomonas aeruginosa, A9843A, im, read-out: PD50/treatment, P. aeruginosa A9843A
Procedure: The PD50 (dose in mg/kg required to give protection to 50% of the infected mice) is indicated.
Treatment Schedule: Mice were treated i.m. with drugs 0 and 2 hours post-infection; 5 mice per dose were used for each test
*For compound of Ex. 2, mice were infected i.p. with 2 × 10^9
compounds of Ex. 4 and 5, mice were infected i.p. with ~9 ×
were treated i.m. with drugs 0 and 2 h postinfection.

[4] = Blood levels in mice after intramuscular administration; type: in vivo; conditions: mouse, blood, im, 20 mg/kg, intramuscular dose of 20 mg/kg
Source text: Compounds were solubilized in 0.1 M phosphate buffer pH 7. Values are fro
a single test; 4 mice used per compound.
*t1/2 refers to halflife in minutes
**AUC refers to the area under the blood concentrationtime curve
(§1) Also shown is the urinary recovery in the mice.
Compounds were solubilized in 0.1 M phosphate buffer, pH 7.
Values based on a single test; 4 mice per compound.
*T1/2 refers to halflife in minutes

[5] = Urinary recovery after intramuscular administration to mice; type: in vivo; conditions: mouse, urine, im, 20 mg/kg, intramuscular dose of 20 mg/kg, 0-6 hour collection, read-out: Urine Recovery
Procedure: Compounds were solubilized in 0.1 M phosphate buffer pH 7. Values are from a single test; 4 mice per compound.
as §1
***Recovery based on 0-6 hour collection

[6] = Half-life in phosphate buffer solution; type: physicochemical; conditions: 37° C.
Procedure: A solution of para-nitrobenzyl 3-[2-(N-methylthiomorpholinium diphenylphosphate)ethylthio]-6α-[1'-(R)-hydroxyethyl]-7-oxo-1-azabicyclo[3.2.0]hept-2-ene-2-carboxylate (1.31 g, 1.76 mmol) in 0.1 M pH 7.4 phosphate buffer (48.8 mL), tetrahydrofuran (20 mL) and diethyl ether (20 mL) was hydrogenated over 10% pd/C (1.5 g) in a Parr shaker for 1 h at 40 psi. The reaction mixture was diluted with diethyl ether (40 mL) and the phases were separated. The organic phase was washed with water (2×5 mL). The aqueous phases were combined, filtered through a #52 hardened filter paper, washed with diethyl ether (2×20 mL) and pumped under vacuum. The aqueous solution was poured on a silica gel reverse phase column and the desired carbapenem was eluted with 5% acetonitrile-water.
To a solution of p-nitrobenzyl (5R,6S)-3-[2-(1-methylmorpholino)ethylthio]-6-[(R)-1-hydroxyethyl]-7-oxo-1-azabicyclo[3.2.0]hept-2-ene-2-carboxylate diphenylphosphate (0.360 g, 0.49 mmol) in 13 mL of phosphate buffer (0.05 M pH 7.4) was added 0.36 g of 10% palladium-on-charcoal, 20 mL of tetrahydrofuran and 20 mL of diethyl ether. This mixture was hydrogenated (Parr) at 32 psi for 1 h. The mixture was filtered through Celite and the filter pad was washed with H2 O and diethyl ether. The aqueous phase was separated and the pH was adjusted to 7.0 with additional pH 7.4 phosphate buffer. After removing residual organic solvents in vacuo the aqueous solution was applied to a C18 reverse-phase column.
To a solution of (5R,6S)paranitrobenzyl 3-[2-(1,4-dimethyl-1-piperazinium)ethylthio]-6-[1-(R)-hydroxyethyl]-7-oxo- 1-azabicyclo[3.2.0]hept-2-ene-2-carboxylate diphenylphosphate (0.47 g, 0.623 mmol) in wet tetrahydrofuran (25 mL) was added diethyl ether (25 mL), potassium phosphate monobasic-sodium hydroxide buffer (13 mL, pH 7.22) and 10% palladium on charcoal (0.47 g). The resulting mixture was hydrogenated at 23° C. under 40 psi for 1 h. The two layers were separated and the organic layer was extracted with water (2×7 mL).
To a cold (-10° C.) solution of (5R,6S)-3-[2 -(N-methyl-thiomorpholinium)ethylthio]-6-[1-(R)-hydroxyethyl]-7-oxo-1-azabicyclo(3.2.0)-hept-2-ene-2-carboxylate (608 mg, 1.65 mmol) in a 1:1 mixture of acetonitrile-water (9 mL) was added m-chloroperbenzoic acid (334.8 mg, 1.65 mmol) in small portion over a 1 hour period. The mixture was then diluted with water (15 mL) and washed with diethyl ether (3×15 mL).
A mixture of (5R,6S) paranitrobenzyl 3-[2-(1,4,4-trimethyl-1-piperazinium)ethylthio]-6-[1R-hydroxyethyl]-7-oxo- 1-azabicyclo(3.2.0)hept-2-ene-2-carboxylate bischloride (0.40 g, 0.68 mmol), phosphate buffer (30 mL, 0.05M, pH 7.0), tetrahydrofuran (10 mL), ether (30 mL) and 10% palladium on charcoal (0.40 g) was hydrogenated at 23° C. under 35 psi for 1 h. The two phases were separated. The organic phase was extracted with water (10 mL).

P. aeruginosa A20481 = assay: Protective effect in the intramuscular treatment of infected mice (PD50); type: in vivo; conditions: Pseudomonas aeruginosa, A20481, im; mice infected i.p. (Ex. 2: 1 × 10^5 organisms), treated i.m. 0 and 2 h postinfection

C[C@@H](O)[C@H]1C(=O)N2C(C(=O)[O-])=C(SCC[N+]3(C)CC[S+]([O-])CC3)C[C@H]12 (single isomer, unassigned) [Ex. 5 comp. A]
MIC S. pneumoniae A-9585 (S. pneumoniae A-9585; Nutrient Broth): 0.004 µg/mL (≈ 0.0103 µM)
MIC S. pyogenes A-9604 (S. pyogenes A-9604; tube dilution): 0.004 µg/mL (≈ 0.0103 µM)
MIC S. aureus-50% serum A-9537 (S. aureus A-9537; 50% serum, tube dilution): 0.03 µg/mL (≈ 0.0772 µM)
MIC S. aureus A-9537 (S. aureus A-9537; tube dilution, Nutrient Broth): 0.016 µg/mL (≈ 0.0412 µM)
MIC S. aureus (Pen-res.) A-9606 [1]: 0.03 µg/mL (≈ 0.0772 µM)
MIC S. faecalis A20688 (S. faecalis A20688; tube dilution): 0.05 µg/mL (≈ 0.129 µM)
MIC E. coli A15119 (E. coli A15119; tube dilution): 0.03 µg/mL (≈ 0.0772 µM)
MIC E. coli A20341-1 (E. coli A20341-1; tube dilution): 0.03 µg/mL (≈ 0.0772 µM)
MIC K. pneumoniae A-9664 (K. pneumoniae A-9664; tube dilution): 0.06 µg/mL (≈ 0.154 µM)
MIC K. pneumoniae A20468 (K. pneumoniae A20468; tube dilution): 0.13 µg/mL (≈ 0.335 µM)
MIC P. mirabilis A-9900 (P. mirabilis A-9900; tube dilution): 0.13 µg/mL (≈ 0.335 µM)
MIC P. vulgaris A21559 (P. vulgaris A21559; tube dilution): 0.06 µg/mL (≈ 0.154 µM)
MIC M. morganii A15153 (P. morganii A15153; tube dilution): 0.13 µg/mL (≈ 0.335 µM)
MIC P. rettgeri A22424 (P. rettgeri A22424; tube dilution): 0.25 µg/mL (≈ 0.643 µM)
MIC S. marcescens A20019 (S. marcescens A20019; tube dilution): 0.06 µg/mL (≈ 0.154 µM)
MIC E. cloacae A-9656 (E. cloacae A-9656; tube dilution): 0.13 µg/mL (≈ 0.335 µM)
MIC P. aeruginosa A-9843a (P. aeruginosa A-9843A [2]): 32 µg/mL (≈ 82.4 µM)
MIC P. aeruginosa A21213 (P. aeruginosa A21213; tube dilution): 16 µg/mL (≈ 41.2 µM)
MIC E. cloacae A-9659 (E. cloacae A-9659; tube dilution): 0.13 µg/mL (≈ 0.335 µM)
ED50 (P. aeruginosa A-9843a [3]): > 12.5 mg/kg
Cmax [4]: 10200 ng/mL
AUC ([4]; read-out: Blood AUC): 3100 ng·h/mL
half-life ([4]; read-out: Blood T1/2): 7 min
dose excreted at 6 h [5]: 14 ± 1%
half-life ([6]; 0.065 m phosphate buffer, pH 7.4, 0.065 M, pH 7.4 phosphate buffer, read-out: T 1/2 (solution stability) (converted)): 12 h

C[C@@H](O)[C@H]1C(=O)N2C(C(=O)[O-])=C(SCC[N+]3(C)CCSCC3)C[C@H]12 [Example 2, 3-[2-(N-Methyl-thiomorpholinium)ethylthio]-6α-[1'-(R)-hydroxyethyl]-7-oxo-1-azabicyclo[3.2.0]-hept-2-ene-2-carboxylate]
MIC (S. pneumoniae A-9585; Streptococcus pneumoniae, A9585, Nutrient Broth): 0.001 µg/mL (≈ 0.00268 µM)
MIC (S. pyogenes A-9604; Streptococcus pyogenes, A9604, tube dilution): 0.002 µg/mL (≈ 0.00537 µM)
MIC (S. aureus A-9537; A9537, 50% serum, tube dilution, read-out: MIC S. aureus-50% serum A-9537): 0.016 µg/mL (≈ 0.043 µM)
MIC (S. aureus A-9537; A9537, tube dilution, Nutrient Broth, read-out: MIC S. aureus A-9537): 0.008 µg/mL (≈ 0.0215 µM)
MIC ([1]; Staphylococcus aureus, read-out: MIC S. aureus (Pen-res.) A-9606): 0.016 µg/mL (≈ 0.043 µM)
MIC (S. faecalis A20688; Enterococcus faecalis, A20688, tube dilution): 0.25 µg/mL (≈ 0.671 µM)
MIC (E. coli A15119; Escherichia coli, A15119, tube dilution): 0.016 µg/mL (≈ 0.043 µM)
MIC (E. coli A20341-1; Escherichia coli, A203411, tube dilution): 0.03 µg/mL (≈ 0.0805 µM)
MIC (K. pneumoniae A-9664; Klebsiella pneumoniae, A9664, tube dilution): 0.06 µg/mL (≈ 0.161 µM)
MIC (K. pneumoniae A20468; Klebsiella pneumoniae, A20468, tube dilution): 0.13 µg/mL (≈ 0.349 µM)
MIC (P. mirabilis A-9900; Proteus mirabilis, A9900, tube dilution): 0.06 µg/mL (≈ 0.161 µM)
MIC (P. vulgaris A21559; Proteus vulgaris, A21559, tube dilution): 0.03 µg/mL (≈ 0.0805 µM)
MIC (P. morganii A15153; Morganella morganii, A15153, tube dilution, read-out: MIC M. morganii A15153): 0.06 µg/mL (≈ 0.161 µM)
MIC (P. rettgeri A22424; Providencia rettgeri, A22424, tube dilution): 0.13 µg/mL (≈ 0.349 µM)
MIC (S. marcescens A20019; Serratia marcescens, A20019, tube dilution): 0.06 µg/mL (≈ 0.161 µM)
MIC (E. cloacae A-9656; Enterobacter cloacae, A9656, tube dilution): 0.13 µg/mL (≈ 0.349 µM)
MIC (P. aeruginosa A-9843A [2]; Pseudomonas aeruginosa, A9843A): 32 µg/mL (≈ 85.9 µM)
MIC (P. aeruginosa A21213; Pseudomonas aeruginosa, A21213, tube dilution): 8 µg/mL (≈ 21.5 µM)
MIC (E. cloacae A-9659; Enterobacter cloacae, A9659, tube dilution): 0.13 µg/mL (≈ 0.349 µM)
ED50 (P. aeruginosa A-9843a [3]): 4.7 mg/kg
ED50 (P. aeruginosa A20481): 33 mg/kg
half-life ([6]; 0.1 m phosphate buffer, pH 7, 0.1 M pH 7 phosphate buffer, read-out: T1/2 (solution stability) (converted)): 17.7 h
